From patent US6130238A, “3-(cyclohexanoheteroarylidenyl)-2-indolinone protein tyrosine kinase inhibitors” (Sugen, Inc., priority 1998, dated 2000)

Tests used:
[1] = target: FAK (Homo sapiens, UniProt Q05397); experiment: FAK kinase inhibition; type: biochemical
Description: (§1) IC50 refers to the amount (in micromoles, μM) of compound required to achieve 50% inhibition of the activity of the particular kinase being tested as compared to the activity of an untreated control.

[2] = target: T1, FLK-1R (Mus musculus, UniProt P35918); experiment: FLK-1 receptor kinase activity, cellular ELISA (NIH3T3 C7#3 cells, VEGF stimulated); type: cell-based
T1 construct: expressed in transfected cells; host or cells: NIH3T3 C7#3 cells
T1 sequence (P35918 20-1345): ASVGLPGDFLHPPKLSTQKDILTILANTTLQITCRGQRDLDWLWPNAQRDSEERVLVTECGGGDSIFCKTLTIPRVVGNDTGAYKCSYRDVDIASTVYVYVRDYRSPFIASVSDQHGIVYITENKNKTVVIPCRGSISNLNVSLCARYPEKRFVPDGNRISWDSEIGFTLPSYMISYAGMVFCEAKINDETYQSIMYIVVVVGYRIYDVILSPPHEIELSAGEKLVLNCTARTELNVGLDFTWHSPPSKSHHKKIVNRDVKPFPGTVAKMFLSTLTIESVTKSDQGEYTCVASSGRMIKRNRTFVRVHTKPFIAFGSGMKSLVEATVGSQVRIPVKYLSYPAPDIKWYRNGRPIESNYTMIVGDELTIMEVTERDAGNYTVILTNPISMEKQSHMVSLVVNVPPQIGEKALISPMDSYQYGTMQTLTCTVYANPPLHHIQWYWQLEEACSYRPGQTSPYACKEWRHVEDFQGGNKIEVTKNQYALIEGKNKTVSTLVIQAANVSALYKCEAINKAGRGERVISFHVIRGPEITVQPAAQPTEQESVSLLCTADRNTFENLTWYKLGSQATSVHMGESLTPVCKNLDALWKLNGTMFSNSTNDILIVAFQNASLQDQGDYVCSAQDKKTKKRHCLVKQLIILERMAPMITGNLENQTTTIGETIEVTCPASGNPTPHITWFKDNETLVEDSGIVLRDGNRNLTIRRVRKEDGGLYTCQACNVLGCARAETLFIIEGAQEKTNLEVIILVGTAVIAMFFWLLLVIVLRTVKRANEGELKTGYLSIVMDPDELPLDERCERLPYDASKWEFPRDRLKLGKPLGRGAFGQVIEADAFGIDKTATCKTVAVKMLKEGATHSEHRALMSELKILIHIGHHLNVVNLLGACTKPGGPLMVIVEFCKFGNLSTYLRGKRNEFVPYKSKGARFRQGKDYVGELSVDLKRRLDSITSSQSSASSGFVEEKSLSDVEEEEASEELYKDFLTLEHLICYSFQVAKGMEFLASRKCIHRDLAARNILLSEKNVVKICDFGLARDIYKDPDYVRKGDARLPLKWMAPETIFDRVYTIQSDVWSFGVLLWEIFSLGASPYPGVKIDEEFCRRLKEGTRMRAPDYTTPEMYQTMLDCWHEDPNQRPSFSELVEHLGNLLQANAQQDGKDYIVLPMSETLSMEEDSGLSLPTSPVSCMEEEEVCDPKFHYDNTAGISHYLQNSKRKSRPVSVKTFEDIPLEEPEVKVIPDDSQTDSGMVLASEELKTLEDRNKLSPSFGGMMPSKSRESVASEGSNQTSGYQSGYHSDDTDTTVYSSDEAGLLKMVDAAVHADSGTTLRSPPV

[3] = target: T2, EGFR (Homo sapiens, UniProt P00533); experiment: EGF Receptor ELISA (NIH 3T3/C7 cells); type: cell-based
T2 construct: expressed in transfected cells; host or cells: NIH 3T3/C7 cell line
T2 sequence (P00533 25-1210): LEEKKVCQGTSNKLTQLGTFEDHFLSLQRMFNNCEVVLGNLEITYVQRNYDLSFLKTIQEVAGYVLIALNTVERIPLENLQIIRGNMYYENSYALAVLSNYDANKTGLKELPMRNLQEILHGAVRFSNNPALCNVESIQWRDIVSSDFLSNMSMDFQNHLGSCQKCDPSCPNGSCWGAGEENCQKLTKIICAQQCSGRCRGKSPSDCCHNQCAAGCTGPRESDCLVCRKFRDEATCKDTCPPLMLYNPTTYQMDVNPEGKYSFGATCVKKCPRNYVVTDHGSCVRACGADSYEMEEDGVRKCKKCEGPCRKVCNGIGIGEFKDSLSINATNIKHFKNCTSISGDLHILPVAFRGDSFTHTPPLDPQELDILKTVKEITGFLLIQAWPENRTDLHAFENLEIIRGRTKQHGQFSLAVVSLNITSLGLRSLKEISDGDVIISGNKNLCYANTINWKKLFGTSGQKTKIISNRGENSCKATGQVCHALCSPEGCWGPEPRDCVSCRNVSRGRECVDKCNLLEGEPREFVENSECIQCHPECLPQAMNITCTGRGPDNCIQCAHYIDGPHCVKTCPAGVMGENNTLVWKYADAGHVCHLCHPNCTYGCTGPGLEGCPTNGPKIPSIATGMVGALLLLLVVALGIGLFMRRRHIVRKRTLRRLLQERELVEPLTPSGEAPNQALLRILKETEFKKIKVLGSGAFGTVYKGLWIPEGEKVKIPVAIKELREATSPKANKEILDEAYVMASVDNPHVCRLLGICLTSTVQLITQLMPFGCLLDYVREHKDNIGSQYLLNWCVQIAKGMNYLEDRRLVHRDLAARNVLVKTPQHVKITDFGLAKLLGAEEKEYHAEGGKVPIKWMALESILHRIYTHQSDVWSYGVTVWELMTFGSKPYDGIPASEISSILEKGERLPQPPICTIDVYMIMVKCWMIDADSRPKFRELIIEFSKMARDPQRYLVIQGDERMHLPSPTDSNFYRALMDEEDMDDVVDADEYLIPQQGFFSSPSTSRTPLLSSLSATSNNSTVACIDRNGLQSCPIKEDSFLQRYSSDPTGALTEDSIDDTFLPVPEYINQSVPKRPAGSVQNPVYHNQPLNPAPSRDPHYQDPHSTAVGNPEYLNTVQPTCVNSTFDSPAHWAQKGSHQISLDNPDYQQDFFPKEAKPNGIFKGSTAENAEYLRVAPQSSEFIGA
Method: as §1
(§2) The cellular/catalytic assays described herein are performed in an ELISA format. The general procedure is a follows: a compound is introduced to cells expressing the test kinase, either naturally or recombinantly, for some period of time after which, if the test kinase is a receptor, a ligand known to activate the receptor's activity is added. The cells are lysed and the lysate is transferred to the wells of an ELISA plate previously coated with a specific antibody recognizing the substrate of the enzymatic phosphorylation reaction. Non-substrate components of the cell lysate are washed away and the amount of phosphorylation on the substrate is detected with an antibody specifically recognizing phosphotyrosine compared with control cells that were not contacted with a test compound.
EGF Receptor kinase activity in cells genetically engineered to express human EGF-R can be measured as described below:
1. […]
12. The maximal phosphotyrosine signal is determined by subtracting the value of the negative controls from the positive controls. The percent inhibition of phosphotyrosine content for extract-containing wells is then calculated, after subtraction of the negative controls.

[4] = system: PDGFR; experiment: PDGF-R ELISA (U1242 cells); type: cell-based
Method: as §1, §2
All cell culture media, glutamine, and fetal bovine serum can be purchased from Gibco Life Technologies (Grand Island, NY) unless otherwise specified. All cells are grown in a humid atmosphere of 90-95% air and 5-10% CO2 at 37° C. All cell lines are routinely subcultured twice a week and are negative for mycoplasma as determined by the Mycotect method (Gibco). […]

[5] = target: T3, LCK (Homo sapiens, UniProt P06239); experiment: Biochemical lck Assay--ELISA
T3 construct: made in house; host or cells: Schizosaccharomyces pombe SP200, pRSP expression plasmid
T3 sequence (P06239 whole entry, species assumed): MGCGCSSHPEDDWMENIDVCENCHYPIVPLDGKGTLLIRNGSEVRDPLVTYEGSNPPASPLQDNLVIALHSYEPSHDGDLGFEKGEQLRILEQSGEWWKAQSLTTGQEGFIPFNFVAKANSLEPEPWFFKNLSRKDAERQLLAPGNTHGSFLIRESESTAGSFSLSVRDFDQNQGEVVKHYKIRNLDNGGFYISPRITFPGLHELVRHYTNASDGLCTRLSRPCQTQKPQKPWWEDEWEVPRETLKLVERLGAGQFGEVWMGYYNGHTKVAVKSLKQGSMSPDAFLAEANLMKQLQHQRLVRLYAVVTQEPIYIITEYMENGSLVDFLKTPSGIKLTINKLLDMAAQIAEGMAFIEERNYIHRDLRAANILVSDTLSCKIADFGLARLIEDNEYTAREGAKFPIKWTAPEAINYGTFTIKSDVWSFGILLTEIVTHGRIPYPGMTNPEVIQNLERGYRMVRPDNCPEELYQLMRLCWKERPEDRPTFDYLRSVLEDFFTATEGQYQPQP
Description: as §1
h. Biochemical lck Assay--ELISA
This assay is used to determine lck protein kinase activities measuring phosphorylation of GST-.zeta. as the readout.
a. Yeast transformed with lck. Schizosaccharomyces Pombe is used to express recombinant Lck (Superti-Furga, et al., EMBO J, 12:2625-2634; Superti-Furga, et al., Nature Biotech., 14:600-605). S. Pombe strain SP200 (h-s leul.32 ura4 ade210) is grown as described and transformations with pRSP expression plasmids are done by the lithium acetate method (Superti-Furga, supra). Cells are grown in the presence of 1 μM thiamine […].
a. Preparation of Lck coated ELISA plate.
(§3) c. Kinase assay procedure.
2. Add 0.08 ml Kinase Reaction Mixture per well (containing 10 μl of 10× Kinase Buffer and 2 μg GST-.zeta. per well diluted with water).
(§4) 3. Add 10 μl of compound diluted in water containing 10% DMSO and pre-incubate for 15 minutes at room temperature.
4. Start kinase reaction by adding 10 μl/well of 0.1 mM ATP in water (10 μM ATP final).
5. Shake ELISA plate for 60 min. at room temperature.
14. Develop with Turbo TMB.

[6] = target: T4, SRC (Gallus gallus, UniProt P00523); experiment: Biochemical src assay--ELISA
T4 construct: made in house; host or cells: Schizosaccharomyces pombe SP200, pRSP expression plasmid; yeast from Courtneidge Laboratory (Sugen)
Description: as §1
g. Biochemical src assay--ELISA
This assay is used to determine src protein kinase activity measuring phosphorylation of a biotinylated peptide as the readout.
h. Anti-src (327) mab: Schizosaccharomyces Pombe is used to express recombinant Src (Superti-Furga, et al., EMBO J., 12:2625-2634; Superti-Furga, et al., […]., 14:600-605). S. Pombe strain SP200 (h-s leul.32 ura4 ade210) is grown as described and transformations are pRSP expression plasmids are done by the lithium acetate method (Superti-Furga, supra). Cells are grown in the presence of 1 μM thiamine to repress expression from the nmtl promoter or in the absence of thiamine to induce expression.
a. Preparation of src coated ELISA plate.
as §3
2. Add 0.08 ml Kinase Reaction Mixture per well (containing 10 μl of 10× Kinase Buffer and 10 μM (final concentration) biotin-EEEYEEYEEEYEEEYEEEY per well diluted in water.
as §4
4. Start kinase reaction by adding 10 μl/well of 0.05 mM ATP in water (5 μM ATP final).
5. Shake ELISA plate for 15 min. at room temperature.
10. […]

[7] = system: HUV-EC-C cells; experiment: HUV-EC-C Assay, VEGF (3H-thymidine incorporation); type: cell-based, human; details: read-out: HUV-EC-C (ATCC) VEGF
Description: as §1
(§5) The cellular/biologic assays described herein measure the amount of DNA made in response to activation of a test kinase, which is a general measure of a proliferative response. The general procedure for this assay is as follows: a compound is introduced to cells expressing the test kinase, either naturally or recombinantly, for some period of time after which, if the test kinase is a receptor, a ligand known to activate the receptor's activity is added. After incubation at least overnight, a DNA labeling reagent such as Bromodeoxy-uridine (BrdU) or 3H-thymidine is added. The amount of labeled DNA is detected with either an anti-BrdU antibody or by measuring radioactivity and is compared to control cells not contacted with a test compound.
(§6) The following protocol may also be used to measure a compound's activity against PDGF-R, FGF-R, VEGF, aFGF or Flk-1/KDR, all of which are naturally expressed by HUV-EC cells.
1. […]

[8] = system: HUV-EC-C cells; experiment: HUV-EC-C Assay, aFGF (3H-thymidine incorporation); type: cell-based, human; details: read-out: HUV-EC-C (ATCC) aFGF
Description: as §1, §5, §6
1. […]

Chain of FAK (Q05397 whole entry, species assumed): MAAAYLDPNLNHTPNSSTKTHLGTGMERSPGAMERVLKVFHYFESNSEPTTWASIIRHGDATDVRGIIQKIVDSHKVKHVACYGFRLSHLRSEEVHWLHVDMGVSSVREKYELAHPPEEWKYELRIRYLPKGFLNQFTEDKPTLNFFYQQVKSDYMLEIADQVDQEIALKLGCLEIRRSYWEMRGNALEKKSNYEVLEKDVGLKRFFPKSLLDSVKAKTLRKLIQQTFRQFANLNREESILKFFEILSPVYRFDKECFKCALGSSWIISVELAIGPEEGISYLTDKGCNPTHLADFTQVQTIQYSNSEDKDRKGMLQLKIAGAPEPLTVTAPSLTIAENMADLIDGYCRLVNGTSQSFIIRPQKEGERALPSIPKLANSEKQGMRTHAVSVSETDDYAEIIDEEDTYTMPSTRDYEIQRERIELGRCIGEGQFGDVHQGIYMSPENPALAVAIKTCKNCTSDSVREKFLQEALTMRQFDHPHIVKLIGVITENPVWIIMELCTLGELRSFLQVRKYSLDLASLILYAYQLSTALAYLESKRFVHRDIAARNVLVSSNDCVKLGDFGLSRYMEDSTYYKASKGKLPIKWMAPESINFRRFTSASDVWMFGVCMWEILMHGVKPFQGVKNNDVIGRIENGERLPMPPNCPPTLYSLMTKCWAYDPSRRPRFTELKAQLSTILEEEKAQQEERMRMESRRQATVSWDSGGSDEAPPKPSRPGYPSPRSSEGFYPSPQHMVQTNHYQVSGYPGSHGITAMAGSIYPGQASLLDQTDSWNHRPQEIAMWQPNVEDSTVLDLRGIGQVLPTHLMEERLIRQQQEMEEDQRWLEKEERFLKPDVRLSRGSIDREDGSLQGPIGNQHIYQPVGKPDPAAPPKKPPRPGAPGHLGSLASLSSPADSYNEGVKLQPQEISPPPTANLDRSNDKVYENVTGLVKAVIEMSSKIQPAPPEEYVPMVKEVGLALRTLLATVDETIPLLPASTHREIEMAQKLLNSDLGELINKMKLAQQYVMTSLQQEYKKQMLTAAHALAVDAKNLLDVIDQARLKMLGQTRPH

IC50 [1] [nM] | IC50 [2] [nM] | IC50 [3] [nM] | IC50 [4] [nM] | IC50 [5] [nM] | IC50 [6] [nM] | IC50 ([7]; Homo sapiens) [nM] | IC50 [7] [nM] | IC50 ([8]; Homo sapiens) [nM] | IC50 [8] [nM] | Compound
> 10000 | > 100000 | > 100000 | > 100000 | 500 | 100 |  |  |  |  | CN(C)S(=O)(=O)c1ccc2c(c1)C(=CC1=CC3=C(CCCC3)C1)C(=O)N2 [3-(4,5,6,7-tetrahydroinden-2-methyldenyl)-5-[N,N-dimethylaminosulfonyl]2-indolinone]
> 10000 | > 100000 | > 100000 | 1000 | 700 | 800 | 650 | 1070 | 2400 | 3300 | NS(=O)(=O)c1ccc2c(c1)C(=CC1=CC3=C(CCCC3)C1)C(=O)N2 [3-(4,5,6,7-tetrahydroinden-2-methylidenyl)-5-[aminosulfonyl]-2-indolinone]
